From a melting point compilation (Tetko et al.; mined from patent text by program, amines drawn as free bases though some values may be those of a salt)

melting point [°C]	SMILES
177 to 179	COc1ccc(Cn2cnc3c(-c4ccco4)nc(Cl)nc32)cc1C
49 to 51	O=CC1CC1(c1cccc(F)c1)c1cccc(F)c1 (stereo not given)
236 to 237	CC(=NNc1ccc(C2=NNC(=O)CC2)cc1)c1cccnc1
172 to 175	Cc1ccc2cccc(OCc3c(Cl)ccc(S(=O)(=O)N(CCCCN(C(=O)OC(C)(C)C)C(=O)OC(C)(C)C)C(C)(C)C)c3Cl)c2n1
110 to 111	Nc1ccc(-c2cnc(CSCCOc3ccccc3)o2)cc1
137 to 138	COc1cc(COc2ncccc2C#N)ccc1OCc1nc(-c2ccco2)oc1C
137 to 138	CCc1noc(-c2cn(-c3cccc(OCc4ccc(Cl)cc4)c3)cn2)n1
209 to 214	Cc1nc(-c2ccccc2)cc(-c2cccc([N+](=O)[O-])c2)c1CO
88 to 92	Cc1ccc2c(cc(CCC(=O)O)n2S(=O)(=O)c2ccccc2)n1
205 to 207	CC(=O)c1c(-c2ccncc2)[nH]c(-c2ccncc2)c1CO
141 to 142	Cc1c(-c2ccccc2)oc2c(OCCCl)cccc2c1=O
41 to 43	CCCCCCCCCCCCCCC(=O)C(=O)N[C@@H](CCCC)COCC(=O)OCC
40	C=CCOc1cc(OC)ccc1C(=O)c1ccccc1
140 to 145	CC(=O)Nc1nc(CN2CCN(C(c3ccccc3)c3ccc(Cl)cc3)CC2)cs1 (stereo not given)
> 285	COc1ccccc1Nc1nc(-c2ccccc2)c(C(=O)c2sc(Nc3ccccc3OC)nc2-c2ccccc2)s1
179 to 190	O=C1c2ccccc2-c2ccc(Cl)c3cccc1c23
53 to 53.1	CCCCCCCCCOC(=O)Oc1ccc(-c2ccc(C#N)cc2)cc1
144 to 145	CC(C)(C)c1nc(-c2ccc(F)cc2)c(-c2ccc(S(C)(=O)=O)cc2)s1
95 to 96	CCCCCC(=O)OCn1cc(F)c(=O)[nH]c1=O
95	Cc1cc(OCc2ccccc2)c(F)cc1[N+](=O)[O-]
92 to 93	CCCCCCCCCCOc1ccc(-c2ccc(CCCCC(C)O)cc2)cc1 (stereo not given)
52 to 53	S=C(Cc1ccccc1)c1ccccc1
140 to 142	CCCCC(Sc1cc(C(C)(C)C)c(O)c(C(C)(C)C)c1)C(=O)O (stereo not given)
60.5 to 62	CCOC(=O)NC1Cc2ccccc2C1Sc1ccccc1 (stereo not given)
88 to 90	O=c1ccsn1Cc1ccc(Cl)cc1
119	Cc1ccnc(N2CCN(CCCCC3Sc4ccccc4NC3=O)CC2)c1 (stereo not given)
91 to 92	CCCCCCCCC(SCCCCCC)C(=O)Nc1c(SC)ccc2ncccc12 (stereo not given)

melting point [°C]	SMILES
48 to 50	Cc1ccc(C(C)(CCCCC(=O)CCCCC(C)(C(=O)O)c2ccc(C)cc2)C(=O)O)cc1 (stereo not given)
86 to 87	Clc1ccc(C(CBr)OC2CCCC(COc3ccc(Cl)cc3Cl)O2)cc1 (stereo not given)
113	CCOC(=O)c1c(N2CCN(C(=O)c3cccs3)CC2)c2cc(F)cnc2n(Cc2cccc(F)c2)c1=O
164 to 165	COCCOc1ccc(/C=C/C(=O)NS(=O)(=O)c2ccccn2)c(Oc2ncc(C(F)(F)F)cc2Cl)c1
> 245	N#Cc1cnc2sc(-c3ccccc3)cc2c1Nc1cccc2[nH]ccc12
110 to 111	COc1ccc(N)c(CS(=O)(=O)c2ccccc2)c1
130 to 132	N#Cc1c(N2CCCCC2)cc(-c2ccc(F)cc2)c2c1Cc1ccccc1-2
108 to 110	C#CC[C@@H](NC(=O)OC(C)(C)C)c1nc2cccnc2c(=O)n1Nc1ccccc1
138 to 139	Cc1nn(-c2ccccn2)cc1COc1ccc(COc2ncccc2CC#N)cc1
76 to 77.5	COC(=O)COc1ccc(NC(=O)COCc2ccccc2)cc1
209 to 211	CCc1nc2c(N)nc3cc(CCCNC(C)=O)ccc3c2n1CC1CCOCC1
156 to 158	Oc1ccccc1-c1nc(-c2ccccc2)no1
193 to 194	COc1ccc2c(C(=O)N[C@H](Cc3ccc(C(F)(F)F)cc3)[C@@H](O)c3ccc(F)cc3)cccc2c1 (racemic)
73.4 to 73.5	O=C(O)c1cc(=O)c2cccc(/C=C/c3ccc(OCCCCc4ccccc4)cc3F)c2o1
89 to 93	CCCCCCCCCCCCCC(=O)Nc1ccc(OC)c(Nc2cc(=O)n(-c3c(Cl)cc(Cl)cc3Cl)[nH]2)c1
168 to 170	COc1ccccc1C(=O)Nc1ccc(N2CCCC2)cc1C(C)=O
95 to 97	CCCCc1nc2ccccn2c(=O)c1-c1ccc(N)cc1
242 to 244	O=C1CC(c2cccc(-c3nc(C(=O)NCCO)co3)c2)=Nc2ccc(-n3cccc3)cc2N1
74 to 75	CCCCOC1C=CC(=O)N1S(=O)(=O)c1ccccn1 (stereo not given)
56 to 62	CC(C)Cc1cccc(CCCn2c(=O)c3c(N4CCN(C)CC4)cc(Cl)cc3n(Cc3ccccc3)c2=O)c1
118 to 120	COc1ccc(S(=O)(=O)Nc2ccc([C@@H](C)C(N)=O)cc2)cc1
192 to 193	O=c1cc(NCc2ccccc2)c(-c2nc[nH]n2)nn1-c1ccccc1
133 to 139	COc1ccc(-c2ccc3c(c2)C=C(C(=O)Nc2ccc(CN(C)C4CCC(=O)CC4)cc2)CCS3)cc1
143	Cc1ccncc1-c1cccc(OC2SCC(O)C(O)C2O)c1 (stereo not given)
56	C=CCOc1ccc(C(=O)O[C@H]2CC[C@H](C(=O)CCCCCBr)CC2)cc1
138 to 140	CCOC(=O)c1c(C)nc2c(c1N)c1ccccc1n2Cc1ccc(OC)cc1
206 to 207	CC(C)[C@H](NC(=O)OCc1ccccn1)C(=O)N[C@@H](Cc1ccccc1)C[C@H](OC=O)[C@H](Cc1ccccc1)NC(=O)[C@@H](NC(=O)OCc1ccccn1)C(C)C

The remaining lines, values behind:

SMILES	melting point [°C]
O=c1[nH]c2ccc(C(F)(F)F)cc2c(-c2cc(Cl)ccc2O)c1NS(=O)(=O)C(F)(F)F	268 to 270
COc1cc2ncnc(N3CCc4ccc(Cl)cc43)c2cc1Cl	226
CN(C)CCn1c(=O)c2cccc([N+](=O)[O-])c2c2cnc3cc4c(cc3c21)OCO4	96 to 97
COc1cc(-c2nc(N3CCN(C(C)=O)CC3)c3c(C)c(C#N)sc3n2)cc(OC)c1OC	211 to 213
CCC(Nc1cc(C)nc(Oc2c(C)cc(Cl)cc2C)c1C(=O)OC)C(C)O (stereo not given)	133 to 135
CC(C)(C)OC(=O)NC1CCCCc2cc(OCC3CCCCC3)ccc21 (stereo not given)	125 to 126
Cc1cc(S(=O)(=O)O)c(NC(=O)Nc2cc3ccccc3[nH]2)cc1Cl	284 to 286
O=c1oc2c(c(O)c1C(c1cc(NS(=O)(=O)c3cccc4cccnc34)cc(NS(=O)(=O)c3cccc4cccnc34)c1)C1CC1)CCCCCC2 (stereo not given)	139 to 145
COC(=O)C1Cc2c(n(C)c3ccccc23)CN1C(=S)SCc1cccs1 (stereo not given)	139 to 140
O=[N+]([O-])C=C(NCCSCc1ncccc1Br)NCCSCc1ncccc1Br	122 to 123
NC(=O)NC[C@@H]1CCCc2cc(Sc3cccc(F)c3)cc(F)c21	131 to 132
CCCn1c(=O)c2[nH]c(/C=C/c3cc(OC)cc(OC)c3)nc2n(CCC)c1=O	249 to 250
Fc1ccc(Oc2ncc3c(-c4ccccc4Cl)n[nH]c3n2)c(F)c1	173 to 176
CCCc1c(C(=O)C(C)C)c2ccc(NC(=O)NC)cc2n1Cc1ccccc1Cl	106 to 108
CCOC(=O)C1=CC(C(=O)c2ccccc2O)=CN2CCc3c([nH]c4ccccc34)C12C(=O)OCC (stereo not given)	209
Cn1cc(C2=C(c3c4n(c5ccccc35)CCCC(CNC(N)=N[N+](=O)[O-])C4)C(=O)NC2=O)c2ccccc21 (stereo not given)	177 to 178
N#Cc1ccccc1N1CCC2(CC1)OCCO2	134 to 135
COP(=O)(NC1C(=O)N2C(C(=O)OCc3ccc([N+](=O)[O-])cc3)=C(C=CN3CCCCC3)CSC12)OC (stereo not given)	220 to 221
CC(C)(C)CN1C(=O)C(=O)N(c2ccc(F)cc2F)C1=S	156 to 157
O=C(NN1CCCCC1)c1nc(-c2ccc(Cl)cc2Cl)n(-c2ccc(Cl)cc2)c1Br	182 to 183
CC1=C(/C=C/C(=O)N2CCN(C(N)=O)CC2)C(C)(C)CCC1	144

SMILES	melting point [°C]
O=C(Nc1cccnn1)N1CCN(c2nccc(-c3ccc(F)c(F)c3)n2)CC1	218 to 219
O=C(O)c1ncn2c1CN=C(c1ccccc1)c1cc(Br)ccc1-2	> 250
CC(NS(=O)(=O)N1CCOCC1)P(=O)(c1ccccc1)c1ccccc1 (stereo not given)	215 to 217
Cc1nc(-c2cc(C)c(OCCCc3cc(C4CC4)no3)c(C)c2)no1	50.5 to 51
CNC1=Nc2ccc([N+](=O)[O-])cc2C(c2ccccc2Cl)=NC1	219 to 221
N#Cc1c(N)nc2ccc(N3CCOCC3)cc2c1Cl	206
N#CCCN1CCC(COC(=O)c2cc(Cl)c(N)c3c2OCCO3)CC1	101 to 103
NC(=O)C12CCCC(C1)C1CCC2C1 (stereo not given)	173 to 174
CC1(C)CCC(C)(C)c2cc(C=O)c(C#C[Si](C)(C)C)cc21	78.4 to 82
C#CCN1CCC=C(c2ccc(C(C)(C)CCCCCC)cc2O)C1	116 to 117
CCC(C(O)C(C)C(O)C(C)CCc1ccc(C)c(O)c1C(=O)O)C1OC(CC)(C2CCC(O)(CC)C(C)O2)CC1C (stereo not given)	151 to 153
CCc1nn2ccc3c(c2c1C(C)=O)CCO3	164 to 165
COC(=O)/C=C(C)/C=C/C(F)=C(C)/C=C/C1(C)C=C(C)OC1C (stereo not given)	122 to 126
Cc1cccc(C)c1CNc1cc(Br)cc2c1nc(N(C)C)n2C	157 to 158
N#Cc1ccc2c(c1)c1c(n2Cc2cccc(F)n2)CCC(NC(=O)C2CC2)C1 (stereo not given)	243 to 245
CC(=N)Nc1cc(C)ccc1N1CCOCC1	121
NC(N)=Nc1nc(-c2cccc(N)n2)cs1	242
Fc1cccc(F)c1CN[C@H]1CCCN[C@H]1c1ccccc1 (relative stereo)	> 260
CCC(OC(C)=O)c1ccc(Cl)c2nc3n(c12)CCCN3c1ccc(N(C)C)nc1C (stereo not given)	165 to 166
CCOC(=O)c1cc(O)nn1-c1ncc(Cl)cc1Cl	164 to 167
